Measured values reported in patent US7868172B2, “2-(hetero)-aryl substituted tetrahydroquinoline derivatives” (Merck Patent GmbH, priority 2003, dated 2011).
“And” between values parts separate entries of the source, which are not always exact repeats. Identical values can stand only once.

How the values were obtained:
[1] = system: HCT116 cells; assay: Cell cycle analysis, propidium iodide FACS (DNA content); type: cell-based; conditions: for percentage of cells in the G0/G1 phase (G1) / percentage of cells in the G2/M phase / percentage of cells in the S phase: HCT116, 24 hrs
Procedure: Monasterol and pentamidine in individual experiments: • HCT116 cells were treated with the given concentrations of the compounds for 24 hrs, processed for the propidium iodide analysis with a BD-FACS scan in order to determine the DNA content of the treated cell populations. The percentage of cells in the G0/G1 phase (unreplicated DNA), S phase (DNA replication phase) and G2/M phase (duplicated DNA before mitosis) is shown. 10,000 events were counted for each concentration. Striking changes in the G2/M enrichment have been highlighted.

[2] = system: colon carcinoma cell line HCT116; assay: Assay II: combination cell proliferation test, Crystal Violet staining; type: cell-based; conditions: for -fold inhibition of proliferation / OD550 nm background corrected / % of control: 48 hrs
Procedure: The combination of the antiprotozoic pentamidine and the inhibitors of kinesin ATPase Eg5/KSP results in increased inhibitory effects in cell proliferation tests with the colon carcinoma cell line HCT116.
10^3 to 10^4 cells of a defined cell line (HCT116, Colo 205, MDA-MB 231, etc.) are sown into each well of a 96-well microtitre plate and cultivated overnight under standard conditions. For the substances of the combination to be tested, 10-50 mM stock solutions in DMSO were prepared. Dilution series (generally 3-fold dilution steps) of the individual substances were combined with one another in the form of a pipetting scheme (see scheme below), while maintaining a DMSO final concentration of 0.5% (v/v). Next morning, the substance mixtures were added to the cells, which were incubated under culture conditions for a further 48 hours. At the end of the cultivation, Crystal Violet staining of the cells was carried out. After extraction of the Crystal Violet from the fixed cells, the absorption at 550 nm was measured spectrophotometrically. It can be used as a quantitative measure of the adherent cells present.
HCT116 cells were incubated overnight at 37° C. in 96-well plates at a density of 2500 or 5000 cells/well. On the following day, a concentration matrix of pentamidine and the compounds indicated was added, and the cells were incubated for a further 48 hrs. The cells were then stained with Crystal Violet, and the absorption was measured after extraction of the dye. The absorption value reflects the number of cells in the well.
Results: Upper matrix: OD550 nm background corrected Central matrix: % of control (the 100% value stands for vehicle-treated cells minus background signal) Lower field: -fold inhibition values (i.e. the 100%/x % value stands for a-fold inhibition of proliferation).

[3] = monastrol 6.125 μM, pentamidine 0 μM
[4] = monastrol 12.5 μM, pentamidine 0 μM
[5] = monastrol 25 μM, pentamidine 0 μM
[6] = monastrol 50 μM, pentamidine 0 μM

CC(C)(C)c1ccc2c(c1)[C@H]1OCCC[C@H]1[C@H](c1ccsc1)N2 [Example I12]
percentage of cells in the G0/G1 phase (G1) ([1]; 0.0032 μM): 36%
percentage of cells in the G2/M phase ([1]; 0.0032 μM): 21%
percentage of cells in the S phase ([1]; 0.0032 μM): 44%
percentage of cells in the G0/G1 phase (G1) ([1]; 0.016 μM): 36%
percentage of cells in the G2/M phase ([1]; 0.016 μM): 21%
percentage of cells in the S phase ([1]; 0.016 μM): 43%
percentage of cells in the G0/G1 phase (G1) ([1]; 0.08 μM): 35%
percentage of cells in the G2/M phase ([1]; 0.08 μM): 23%
percentage of cells in the S phase ([1]; 0.08 μM): 42%
percentage of cells in the G0/G1 phase (G1) ([1]; 0.4 μM): 7%
percentage of cells in the G2/M phase ([1]; 0.4 μM): 86%
percentage of cells in the S phase ([1]; 0.4 μM): 7%
percentage of cells in the G0/G1 phase (G1) ([1]; 2 μM): 0%
percentage of cells in the G2/M phase ([1]; 2 μM): 85%
percentage of cells in the S phase ([1]; 2 μM): 15%
activity at 0.025 µM ([2]; Homo sapiens, HCT-116, 48 h, I12 0.025 μM, pentamidine 0 μM, read-out: % of control): 91%
activity at 0.05 µM ([2]; Homo sapiens, HCT-116, 48 h, I12 0.05 μM, pentamidine 0 μM, read-out: % of control): 98%
activity at 0.1 µM ([2]; Homo sapiens, HCT-116, 48 h, I12 0.1 μM, pentamidine 0 μM, read-out: % of control): 90%
activity at 0.2 µM ([2]; Homo sapiens, HCT-116, 48 h, I12 0.2 μM, pentamidine 0 μM, read-out: % of control): 90%
activity at 0.4 µM ([2]; Homo sapiens, HCT-116, 48 h, I12 0.4 μM, pentamidine 0 μM, read-out: % of control): 31%
-fold inhibition of proliferation ([2]; I12 0.025 μM, pentamidine 0 μM): 1 fold
OD550 nm background corrected ([2]; I12 0.025 μM, pentamidine 0 μM): 1.1
-fold inhibition of proliferation ([2]; I12 0.05 μM, pentamidine 0 μM): 1 fold
OD550 nm background corrected ([2]; I12 0.05 μM, pentamidine 0 μM): 1.2
-fold inhibition of proliferation ([2]; I12 0.1 μM, pentamidine 0 μM): 1 fold
OD550 nm background corrected ([2]; I12 0.1 μM, pentamidine 0 μM): 1.1
-fold inhibition of proliferation ([2]; I12 0.2 μM, pentamidine 0 μM): 1 fold
OD550 nm background corrected ([2]; I12 0.2 μM, pentamidine 0 μM): 1.1
-fold inhibition of proliferation ([2]; I12 0.4 μM, pentamidine 0 μM): 3 fold
OD550 nm background corrected ([2]; I12 0.4 μM, pentamidine 0 μM): 0.4

N=C(N)c1ccc(OCCCCCOc2ccc(C(=N)N)cc2)cc1.O=S(=O)(O)CCO.O=S(=O)(O)CCO [Pentamidine Isothionate]
percentage of cells in the G0/G1 phase (G1) ([1]; 0.016 μM): 36%
percentage of cells in the G2/M phase ([1]; 0.016 μM): 22%
percentage of cells in the S phase ([1]; 0.016 μM): 42%
percentage of cells in the G0/G1 phase (G1) ([1]; 0.08 μM): 35%
percentage of cells in the G2/M phase ([1]; 0.08 μM): 21%
percentage of cells in the S phase ([1]; 0.08 μM): 44%
percentage of cells in the G0/G1 phase (G1) ([1]; 0.4 μM): 33%
percentage of cells in the G2/M phase ([1]; 0.4 μM): 22%
percentage of cells in the S phase ([1]; 0.4 μM): 45%
percentage of cells in the G0/G1 phase (G1) ([1]; 2 μM): 32%
percentage of cells in the G2/M phase ([1]; 2 μM): 24%
percentage of cells in the S phase ([1]; 2 μM): 44%
percentage of cells in the G0/G1 phase (G1) ([1]; 10 μM): 32%
percentage of cells in the G2/M phase ([1]; 10 μM): 32%
percentage of cells in the S phase ([1]; 10 μM): 32%

N=C(N)c1ccc(OCCCCCOc2ccc(C(=N)N)cc2)cc1 [Pentamidine, pentamidine]
effect on the cell cycle (in words) [1]: maintain cells in the G2/M cell cycle
activity at 4 µM ([2]; Homo sapiens, HCT-116, 48 h, pentamidine 4 μM alone, read-out: % of control): 85%
activity at 8 µM ([2]; Homo sapiens, HCT-116, 48 h, pentamidine 8 μM alone, read-out: % of control): 50%
activity at 16 µM ([2]; Homo sapiens, HCT-116, 48 h, pentamidine 16 μM alone, read-out: % of control): 30%
activity at 32 µM ([2]; Homo sapiens, HCT-116, 48 h, pentamidine 32 μM alone, read-out: % of control): 20%
% of control ([2]; pentamidine 2 μM alone): 86% and 124%
-fold inhibition of proliferation ([2]; pentamidine 2 μM alone): 1 fold
OD550 nm background corrected ([2]; pentamidine 2 μM alone): 1.0 and 1.01
% of control ([2]; pentamidine 4 μM alone): 101%
-fold inhibition of proliferation ([2]; pentamidine 4 μM alone): 1 fold
OD550 nm background corrected ([2]; pentamidine 4 μM alone): 1.0 and 0.82
% of control ([2]; pentamidine 8 μM alone): 55%
-fold inhibition of proliferation ([2]; pentamidine 8 μM alone): 2 fold
OD550 nm background corrected ([2]; pentamidine 8 μM alone): 0.6 and 0.45
% of control ([2]; pentamidine 16 μM alone): 18%
-fold inhibition of proliferation ([2]; pentamidine 16 μM alone): 3 fold and 6 fold
-fold inhibition of proliferation ([2]; pentamidine 32 μM alone): 5 fold
OD550 nm background corrected ([2]; pentamidine 32 μM alone): 0.2

CCOC(=O)C1=C(C)NC(=S)NC1c1cccc(O)c1 (stereo not drawn) [Monastrol]
percentage of cells in the G0/G1 phase (G1) ([1]; 0.08 μM): 35%
percentage of cells in the G2/M phase ([1]; 0.08 μM): 25%
percentage of cells in the S phase ([1]; 0.08 μM): 39%
percentage of cells in the G0/G1 phase (G1) ([1]; 0.4 μM): 34%
percentage of cells in the G2/M phase ([1]; 0.4 μM): 28%
percentage of cells in the S phase ([1]; 0.4 μM): 38%
percentage of cells in the G0/G1 phase (G1) ([1]; 2 μM): 33%
percentage of cells in the G2/M phase ([1]; 2 μM): 25%
percentage of cells in the S phase ([1]; 2 μM): 42%
percentage of cells in the G0/G1 phase (G1) ([1]; 10 μM): 34%
percentage of cells in the G2/M phase ([1]; 10 μM): 27%
percentage of cells in the S phase ([1]; 10 μM): 39%
percentage of cells in the G0/G1 phase (G1) ([1]; 50 μM): 14%
percentage of cells in the G2/M phase ([1]; 50 μM): 52%
percentage of cells in the S phase ([1]; 50 μM): 33%
activity at 6.125 µM ([2]; Homo sapiens, HCT-116, 48 h, monastrol 6.125 μM, pentamidine 0 μM, read-out: % of control): 84%
activity at 12.5 µM ([2]; Homo sapiens, HCT-116, 48 h, monastrol 12.5 μM, pentamidine 0 μM, read-out: % of control): 62%
activity at 25 µM ([2]; Homo sapiens, HCT-116, 48 h, monastrol 25 μM, pentamidine 0 μM, read-out: % of control): 53%
activity at 50 µM ([2]; Homo sapiens, HCT-116, 48 h, monastrol 50 μM, pentamidine 0 μM, read-out: % of control): 17%
-fold inhibition of proliferation [2, 3]: 1 fold
OD550 nm background corrected [2, 3]: 0.68
-fold inhibition of proliferation [2, 4]: 2 fold
OD550 nm background corrected [2, 4]: 0.51
-fold inhibition of proliferation [2, 5]: 2 fold
OD550 nm background corrected [2, 5]: 0.43
-fold inhibition of proliferation [2, 6]: 6 fold
OD550 nm background corrected [2, 6]: 0.14
